# US7691563B2, “Method for alleviating pain using sphingosine-1-phosphate and related compounds, and assays for identifying such compounds” (Sanofi-Aventis Pharma GmbH, priority 2003, dated 2010)
# Values joined by “and” are separate entries in the source; they are usually repeats but may differ in a detail not shown here. Equal entries are not always repeated.
# Tests used:
# ERK1/2 = ERK1/2 phosphorylation in HeLa cells (Western blot); assay type: cell-based, human; conditions: HeLa cells incubated with S1P; anti-active ERK and anti-phosphoTyr183 ERK antibodies
# Description: Panel C: Western Blot analysis of HeLa cells treated with 0.5 μM S1P for 10 minutes. Prior incubation with S1P the cells were incubated for 20 minutes with 10 μM U73122, BAPTA-AM or U0126. Cells were harvested in boiling Laemmli buffer and subjected to Western analyses using anti-active ERK1/2 antibody. Anti-Hsp70 antibody was used as loading control.
# PAM = PAM translocation to the plasma membrane in HeLa cells (immunofluorescence); assay type: cell-based, human
# Description: Panel B: HeLa cells were treated with 10% fetal bovine serum for different times and stained with anti-PAM antibodies to monitor the subcellular localization.
# Panel B: HeLa cells were treated with 0.5 μM S1P for 30 minutes and stained with anti-PAM antibodies to monitor the subcellular localization.
# Panel C: Time dependence of PAM translocation in HeLa cells. Serum-starved HeLa cells were treated with 0.5 μM S1P for different times and stained with anti-PAM antibodies to monitor the subcellular localization.
# Panel D: HeLa cells were treated with 0.5 μM S1P for 20 minutes and stained with anti-PAM antibodies to monitor the subcellular localization. Prior S1P-treatment were the cells incubated for 24 hours with […] pertussis toxin (PTX), for 20 minutes with, 1 μM GF109203X, 10 μM U0126, BAPTA-AM, U73122 or Ro31-223.
# To monitor distribution of PAM in HeLa cells, cells were grown on glass coverslips in DMEM with 10% FBS and 1% penicillin/streptoMycin (Gibco, Karlsruhe, Germany). To visualize translocation of PAM HeLa, cells were serum starved overnight and subsequently treated with 10% serum for 2 hours. Wherever indicated, cells were preincubated for 30 minutes in the presence of different concentrations of inhibitors. The cells were fixed in 4% paraformaldehyde (Sigma, Taufkirchen, Germany) in PBS for 10 minutes and then permeablized in 0.1% Triton X-100 for another 5 minutes. The coverslips were blocked for 1 hour in 3% BSA in PBS and then incubated for 1 hour with anti-PAM antibody (1:50 dilution). This was followed by incubation with FITC-labeled goat anti-rabbit antibody in PBS containing 3% BSA. The cells were then washed with PBS and mounted. For the analysis confocal (BioRad, Hercules, Calif.) and regular flourescence microscopes (Nikon, Duesseldorf, Germany) were used.
# adult rats = assay: Formalin test after intrathecal application of S1P; assay type: in vivo, rat; conditions: 20 μl of 10 μM S1P intrathecal 15 minutes prior to formalin; 20 to 35 minutes after formalin; versus PBS/DMSO
# Description: FIG. 24: Pain behaviour of adult rats in the formalin assay with and without application of S1P over a period of 60 minutes. 20 μl of 10 μM S1P or 20 μl PBS/DMSO were given to adult rats by intrathecal application 15 minutes prior to formalin injection. After formalin injection, flinches were counted in 5 minute intervals over a time-period of 60 minutes. The mean of six animal experiments+SEM is shown.
# To determine the analgesic effect of S1P, S1P was delivered to the spinal chord by intrathecal application.
# Rats were anesthetized with ketamine (60 mg/kg i.p.) and midazolam (0.5-1 mg/kg i.p.). The skin was incised above the vertebral column from vertebrae Th13 up to L3. Muscle tissue around L2-3 was cleared away. The processus spinosus of L3 was removed and a laminectomy was done at L2. Polyethylene catheters (ID 0.28 mm, OD 0.61 mm) were then inserted into the peridural space so that the tip of the catheter reached Th9-10. […]
# Within 15 min after stopping the infusion the formalin test was performed. […] Flinches were counted in one minute intervals up to 60 min starting right after formalin injection. […]
# 20 μl of 10 μM S1P or 20 μl PBS/DMSO were given to adult rats by intrathecal application 15 minutes prior to the formalin injection. Then, flinches were counted in 5 minute intervals over a period of 60 minutes.
# cAMP = cAMP accumulation in HeLa cells; assay type: cell-based, human; conditions: 0.5 μM S1P
# Description: Panel A: cAMP accumulation in HeLa cells was measured in the absence and presence of serum as described above. The mean ±SEM (Standard error of the mean) of three determinations is shown. Panel A: cAMP accumulation in HeLa cells was measured in the absence (black bars) and presence (grey bars) of 0.5 μM S1P at varying times as described in Materials and Methods section. The mean ±SEM of three determinations is shown. Spinal cord samples were sonicated and centrifugeged at 4° C. for 20 minutes with 18.000×g. The supernatent was used for cAMP measurements. The cAMP accumulation in the cells was determined by the cAMP Detection Kit (Assay Design Inc, Ann Arbor, Mich.) according to the manufacturers instructions.
# HeLa cells = assay: Calcium imaging in HeLa cells; assay type: cell-based, human
smiles,measurement,setting,value
"CCCCCCCCCCCCC/C=C/[C@@H](O)[C@@H](N)COP(=O)(O)O [S1P, Sphingosine-1-Phosphate]",ERK1/2 phosphorylation,ERK1/2,detectable
same,PAM translocation among candidate substances for the serum factor,PAM; HeLa cells,induced PAM translocation
same,cells with PAM translocation to the plasma membrane,PAM; HeLa cells treated with 0.1-5 μM S1P,70-90% and 80%
same,time at which PAM appeared at the plasma membrane,"PAM; HeLa cells, 500 nM S1P",10 min
same,time at which PAM started to disappear from the plasma membrane,"PAM; HeLa cells, 500 nM S1P",1 h
same,time of PAM translocation to the plasma membrane,"PAM; HeLa cells, 0.1-5 μM S1P",10 to 30 min
same,"number of nociceptive responses (flinches), phase 2A",adult rats,significant decrease
same,intracellular cAMP content,cAMP,reduced
same,intracellular calcium,HeLa cells,induced a PLC-dependent calcium increase
